The test system of assay [1] is melted dark chocolate pieces with 100% dark cacao. As to the kind of experiment: Sensory evaluation: bitterness reduction of dark chocolate pieces. Format: in vivo. As to conditions: dosage 50 or 100 ppm per sample. On the procedure: (§1) The bitterness blocker candidates listed in Table 1 were prepared into a 1% sample solution with propylene glycol and heated to ensure complete solubilization. […] Individually, the respective sample solution was added to melted dark chocolate pieces with 100% dark cacao. A trained sensory evaluator was asked to estimate the perceived bitterness reduction against the control, as well as to provide comments on how the addition of the individual sample solution modulated the taste and mouth feel profile of the resulting melted dark chocolate pieces.

The test system of a further assay is THC nanoemulsion. The assay can be described thus: Sensory evaluation: bitterness reduction of THC. The assay is classed as in vivo. Conditions: dosage 50 or 100 ppm per sample; for Comments: THC nanoemulsion; for Estimated % bitterness reduction: THC nanoemulsion (10 mg THC per serving). How it is done:
The bitterness blocker candidates listed in Table 1 were prepared into a 1% sample solution with propylene glycol and heated to ensure complete solubilization. […] THC was first emulsified into a water-soluble nanoemulsion (10 mg THC per serving), to which was added the respective sample solution. A trained sensory evaluator was asked to estimate the perceived bitterness reduction against the control, as well as to provide comments on how the addition of the individual sample solution modulated the taste and mouth feel profile of the resulting nanoemulsion.

Assay [2] has as its system peach-flavored energy drink (caffeine, B vitamins). As to the kind of experiment: Sensory evaluation: bitterness reduction of a peach-flavored energy drink. Format: in vivo. As to conditions: for Comments: dosage per sample; for Estimated % bitterness reduction: caffeine about 710 mg/l, dosage (ppm) per sample (20 to 50-100 ppm). On the procedure:
The bitterness blocker candidates listed in Table 1 were prepared into a 1% sample solution with propylene glycol and heated to ensure complete solubilization. […] A trained sensory evaluator was asked to estimate the perceived bitterness reduction against the control, as well as to provide comments on how the addition of the individual sample solution modulated the taste and mouth feel profile of the resulting peach-flavored energy drink.

Assay [3] relates to cough syrup DELSYM (dextromethorphan HBr). As to the kind of experiment: Sensory evaluation: bitterness reduction of cough syrup DELSYM. The assay is classed as in vivo. Conditions: dosage 50 or 100 ppm per sample; for Estimated % bitterness reduction: 6000 mg/l of dextromethorphan. On the procedure: as §1, with “a cough syrup sold under the trade name DELSYM®. The bitter-tasting agent contained in the cough syrup were dextromethorphan HBr USP 30 mg (as measured for each 5 ml teaspoon, i.e., 6000 mg/l of dextromethorphan).” for “melted dark chocolate pieces with 100% dark cacao.”, “cough syrup.” for “melted dark chocolate pieces.”

The test system of the next assay is dark roast coffee. As to the kind of experiment: Sensory evaluation: bitterness reduction of dark roast coffee. The assay is classed as in vivo. As to conditions: dosage 50 or 100 ppm per sample; for Estimated % bitterness reduction: caffeine about 740 mg/l. How it is done: The bitterness blocker candidates listed in Table 1 were prepared into a 1% sample solution with propylene glycol and heated to ensure complete solubilization. […] A trained sensory evaluator was asked to estimate the perceived bitterness reduction against the control, as well as to provide comments on how the addition of the individual sample solution modulated the taste and mouth feel profile of the resulting dark roast coffee.

Assay [4] concerns full spectrum CBD hemp oil nanoemulsion. As to the kind of experiment: Sensory evaluation: bitterness reduction of full spectrum CBD hemp oil. Format: in vivo. As to conditions: dosage 50 or 100 ppm per sample. On the procedure:
The bitterness blocker candidates listed in Table 1 were prepared into a 1% sample solution with propylene glycol and heated to ensure complete solubilization. […] A full spectrum CBD hemp oil was emulsified into a water-soluble nanoemulsion first, to which was added the respective sample solution. […] A trained sensory evaluator was asked to estimate the perceived bitterness reduction against the control, as well as to provide comments on how the addition of the individual sample solution modulated the taste and mouth feel profile of the resulting oil nanoemulsion.

For a further assay, the system named is CBD isolate nanoemulsion. The assay can be described thus: Sensory evaluation: bitterness reduction of CBD isolate. Format: in vivo. Conditions: dosage 50 or 100 ppm per sample. How it is done:
The bitterness blocker candidates listed in Table 1 were prepared into a 1% sample solution with propylene glycol and heated to ensure complete solubilization. […] A CBD isolate was emulsified into a water-soluble nanoemulsion first, to which was added the respective sample solution. […] A trained sensory evaluator was asked to estimate the perceived bitterness reduction against the control, as well as to provide comments on how the addition of the individual sample solution modulated the taste and mouth feel profile of the resulting nanoemulsion.

Assay [5] concerns cough syrup ROBITUSSIN DM (dextromethorphan HBr and guaifenesin). The assay can be described thus: Sensory evaluation: bitterness reduction of cough syrup ROBITUSSIN DM. Format: in vivo. As to conditions: dosage 50 or 100 ppm per sample; for Estimated % bitterness reduction: 21000 mg/l of bitter tastants. On the procedure:
as §1, with “a cough syrup sold under the trade name ROBITUSSIN® DM. The bitter-tasting agents contained in the cough syrup were dextromethorphan HBr USP 20 mg and guaifenesin USP 400 mg (as measured for each 20 ml serving, or 21000 mg/l of bitter tastants in total).” for “melted dark chocolate pieces with 100% dark cacao.”, “cough syrup.” for “melted dark chocolate pieces.”

Another assay relates to 0.25% caffeine solution. As to the kind of experiment: Sensory evaluation: bitterness reduction of a caffeine solution. Conditions: for Estimated % bitterness reduction: one trained sensory evaluator, vs control, dosage (ppm) per sample (20 to 50-100 ppm); for Comments: taste and mouth feel comments, dosage per sample. The assay is classed as in vivo. How it is done:
The bitter blocker candidates listed in Table 1 were prepared into a 1% sample solution with propylene glycol (i.e., 1 g of bitter blocker per 100 ml of propylene glycol) and heated to ensure complete solubilization. […] A trained sensory evaluator was asked to estimate the perceived bitterness reduction against the control, as well as to provide comments on how the addition of the individual sample solution modulated the taste and mouth feel profile of the resulting caffeine solution.

A further assay has as its system caffeine in water. The assay can be described thus: Two-alternative forced choice (2AFC) difference test. The assay is classed as in vivo. On the procedure:
The bitter blocker candidates BB09, BB11, and BB13 were subject to a two-alternative forced choice (2AFC) difference test wherein panelists were presented Control Caffeine solutions and Test solutions containing caffeine and one of three bitterness blocker candidates (BB09, BB 11, or BB13). Panelists were asked to evaluate the two samples and answer the question, “which one is more hitter?”
BB09 and BB11 were tested first. Three ounces of control (caffeine in water), BB09 in caffeine water, and BB11 in caffeine water were presented at room temperature in separate plastic souffle cups labeled with 3-digit codes. Ten sensory trained panelists evaluated each sample in three repetitions with a 10 minute break between repetitions. Panelists then completed the 2AFC. Data was collected on EveQuestion and analyzed on XLSTAT. Testing was conducted at Sensations Research according to FEMA guidelines.
BB13 was tested separately. Two ounces of control (caffeine in water), BB13 in caffeine water were presented at room temperature in separate plastic souffle cups labeled with 3-digit codes. Fifteen participants evaluated each sample in two repetitions with a 10 minute break between repetitions for a total of thirty evaluations as per the FEMA guidelines. Panelists then completed the 2AFC to identify the more bitter sample. Data was collected and analyzed on Compusense.

The subject of assay [6] is bitter-responsive human taste bud tissue-derived cells (hTBEC). As to the kind of experiment: ATP secretion detection assay (luminescence). The assay is classed as cell-based. On the procedure:
The bitter blocker candidates were further characterized using bitter-responsive human taste bud tissue-derived cells (hTBEC) platforms and bioassays. Bitter-responsive hTBECs were treated with hitter blocker candidates and various bitter agonists to assess the efficacy of each bitter blocker candidate in reducing the bitterness of each of the various bitter agonists.
One industry standard bitter agonist was used as a control (L-Praziquantel), and five bitter blocker controls were used (Senomyx BB68, STX-001, sodium gluconate, eridictyol, and homoeridictyol).
BB09, BB11, and BB13 were first tested at various concentrations in combination with 100 μM Dextromethorphan-HBr.
Next, bitter blocker concentration ranges were narrowed (100 μM-1,000 μM) and compared to a fixed concentration of stimulus. […] BB13 was evaluated further by real time ATP secretion detection in pooled hTBEC 66 cells treated with 300 μM Theobromine.
Each culture was treated with BB09, BB11, BB13, STX001, or Senomyx BB68, as well as either Dextromethorphan-HBr at 1000 μM (FIGS. 18A-18C), Theobromine at 1,000 μM (FIGS. 19A-19C), Rebaudioside A at 1 mM (FIGS. 20A-20C), or Caffeine at 3 mM (FIGS. 21A-21C).

Turning to `COc1cc([C@@H]2CC(=O)c3c(O)cc(O)cc3O2)ccc1O` [BB02, Homoeriodictyol], the Comments entry in assay [1] was “Some blocking on sides and tip”; with THC nanoemulsion it was “Some blocking on sides and tip”; in [2], “Some blocking on sides and tip”; in assay [3], “Some blocking on sides and tip”; in the assay with dark roast coffee, “Some blocking on sides and tip”; in assay [4] it was “Some blocking on sides and tip”. For the same compound, the Comments result in the assay on CBD isolate nanoemulsion is “Some blocking on sides and tip”; in [5] it was “Some blocking on sides and tip”.
As to `O=C1C[C@@H](c2ccc(O[C@@H]3O[C@H](CO)[C@@H](O)[C@H](O)[C@H]3O)c(O)c2)Oc2cc(O)cc(O)c21` [BB12, Eriodictyol 4′-O-glucoside], the “Estimated % bitterness reduction” value (in assay [1]; in the assay with THC nanoemulsion; in [2]; with 0.25% caffeine solution; in assay [3]; in the assay on dark roast coffee) was 30% throughout. Besides, the “Estimated % bitterness reduction” value (in [4]; in the assay with CBD isolate nanoemulsion; in assay [5]) was 30% each time. Moreover, the Comments entry with 0.25% caffeine solution was “Some bitterness blocking on front”.
For the compound `COc1cc([C@@H]2CC(=O)c3c(O)cc(O[C@@H]4O[C@H](CO)[C@@H](O)[C@H](O)[C@H]4O)cc3O2)ccc1O` [BB09, Homoeriodictyol 7-O-glucoside], the “Significant?” value with caffeine in water (2AFC, 90% confidence level, which sample is more bitter) was “Yes,”. Moreover, the “# Selected Variant (which is more bitter?)” value in the assay on caffeine in water (of 30 responses (10 panelists, 3 evaluations), control caffeine in water vs variant in caffeine water) is 10. In addition, the Comments result in assay [1] is “Good bitterness reduction but”; in the assay on THC nanoemulsion, “Nice upfront bitterness reduction”; in assay [2], “Good upfront bitterness”; in the assay with 0.25% caffeine solution, “Good upfront bitterness reduction”; in [3] it was “Covered up a good percentage of”; with dark roast coffee it was “Nice upfront bitterness reduction”. Further, the Comments entry (in [4]; in the assay on CBD isolate nanoemulsion) was “Nice upfront bitterness reduction” in each case. Also, in assay [6] (1 mM Rebaudioside A, blocker 1,000 μM, pooled hTBEC 56 cultures (FIG. 17)), the “real time Rebaudioside A-induced ATP secretion” value is recorded as “attenuated”. Also, the “inhibition of the bitter agonists (ATP secretion)” value in assay [6] (hTBEC 66, hTBEC 56, hTBEC Donor H, Dextromethorphan-HBr at 1000 μM, Theobromine 1,000 μM, Rebaudioside A 1 mM or Caffeine 3 mM (FIGS. 18-21)) is reported as “trends of inhibition in most cases”.
In the case of `O=C1C[C@@H](c2ccc(O)c(O)c2)Oc2cc(O)cc(O)c21` [BB07, Eriodictyol], the Comments result in [1] was “Some bitterness blocking on all”; in the assay on THC nanoemulsion, “Some bitterness blocking on all”; in assay [2] it was “Some bitterness blocking on all”; in the assay with 0.25% caffeine solution, “Some bitterness blocking on all parts”; in [3], “Some bitterness blocking on all”; in the assay with dark roast coffee it was “Some bitterness blocking on all”. Moreover, the Comments entry (in assay [4]; with CBD isolate nanoemulsion; in assay [5]) was “Some bitterness blocking on all” each time. Moreover, the “Estimated % bitterness reduction” value was 50% in assay [1]; 30% with THC nanoemulsion; 50% in assay [2]; 50% in the assay on 0.25% caffeine solution; 30% in assay [3]; 50% in the assay on dark roast coffee. The “Estimated % bitterness reduction” value (in assay [4]; with CBD isolate nanoemulsion; in assay [5]) was 30% in each case.

The values are drawn from US20230270148A1, “BITTER BLOCKERS AND RELATED METHODS OF USE” (Conagen Inc., priority 2020, published 2023).
